Converted amounts (≈) assume the structure as drawn. Where a SMILES comes first, the peptide text is derived from it. Bridges are numbered along the chain shown (N, C = ends). [ ]: non-standard residue; d: D form. The star is where a group is joined. Hexanoyl(3R-OH,5-Me) = CC(C)C[C@@H](O)CC(=O)*; dNMeF = CN[C@H](Cc1ccccc1)C(=O)O
Legend:
MRSA = assay: microbe, parasite or virus in culture
Method: (§1) The antimicrobial activities of the compounds were measured using the microdilution method. Measurement of the bactericidal activity of lysocin E (0.25 µg ml^−1) and nisin (2 µg ml^−1) with or without ApoA-I was performed according to the National Committee for Clinical Laboratory Standards method. […] For the ∆menA and ∆menB strains, TSB medium was used instead of cation-adjusted-Mueller Hinton broth (CA-MHB) in the microdilution method. Sera and ApoA-I, II were added to the bacterial culture before distributing them into 96-well plates. ApoA-I and ApoA-II antimicrobial activity were evaluated using the RN4220 strain. The protein binding rate of lysocin E against human plasma was determined by a rapid equilibrium dialysis device (Thermo Fisher Scientific, Waltham, MA, USA) according to the manufacturer’s instructions.

[1] = system: S. aureus (MRSA) JE2 (USA300)
Method: as §1

[2] = system: S. aureus (MRSA) MR5 (Clinical isolate)
Method: as §1

[3] = system: S. aureus (MRSA) MR4 (Clinical isolate)
Method: as §1

[4] = system: S. aureus (MRSA) MR1 (Clinical isolate)
Method: as §1

[5] = system: Bacillus subtilis JCM2499
Method: as §1

S. aureus Newman = system: S. aureus Newman
Method: as §1

[6] = system: Staphylococcus haemolyticus JCM2416
Method: as §1

[7] = system: S. aureus (MRSA) MR6 (Clinical isolate)
Method: as §1

Bacillus cereus JCM20037 = system: Bacillus cereus JCM20037
Method: as §1

S. aureus (MRSA) MRSA4 = system: S. aureus (MRSA) MRSA4
Method: as §1

[8] = system: S. aureus (MRSA) MR2 (Clinical isolate)
Method: as §1

[9] = system: Staphylococcus pseudintermedius JCM17571
Method: as §1

[10] = system: S. aureus Smith ATCC13709
Method: as §1

rhApoA-I ∆NM = molecular target: T1, rhApoA-I ∆NM (Homo sapiens, UniProt P02647, DEL170-184); assay: Bio-layer interferometry, binding to rhApoA-I ∆NM variant; settings: BLI; biotinylated lysocin E on streptavidin biosensor; 2.5 µM protein
T1 construct: 1 65 146 160 185 243; made in house; host or cells: E. coli BL21(DE3)/pLysS, pET20b (pET-hApo∆NM)
T1 sequence (P02647 with tags, fused parts or gaps DEL170-184): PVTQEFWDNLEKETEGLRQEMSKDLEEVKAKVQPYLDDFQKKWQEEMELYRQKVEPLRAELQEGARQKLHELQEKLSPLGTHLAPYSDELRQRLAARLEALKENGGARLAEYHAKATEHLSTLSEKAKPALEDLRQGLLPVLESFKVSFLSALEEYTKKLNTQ
Method: Bio-layer interferometry (BLI) measurements were performed on a BLItz system (ForteBio, Fremont, CA, USA) maintained at room temperature. Kinetic analyses were performed using BLItz Pro ver. 1.2.1.5 (ForteBio). The biotinylated ligand, diluted to 0.1 mg ml^−1 in BLItz buffer (0.05% [v/v] Tween-20 in PBS), was immobilised on a streptavidin biosensor and the kinetic analysis was performed by running BLItz buffer for 300 s each, in the presence and absence of analyte for association and dissociation, respectively. Biotinylated menaquinone (5) and biotinylated lysocin E derivatives (3 and 4) were synthesised as described in the Supplementary Information (Supplementary Figs. 7–15).

in vitro = settings: human plasma
Method: as §1

Structure (SMILES): CC[C@H](C)[C@@H]1NC(=O)[C@@H](Cc2c[nH]c3ccccc23)NC(=O)[C@@H](CCC(N)=O)NC(=O)[C@H](CCC(=O)O)NC(=O)[C@@H](CCCNC(=N)N)NC(=O)[C@H](CC(C)C)NC(=O)[C@@H](Cc2ccccc2)N(C)C(=O)CNC(=O)[C@H](CO)NC(=O)[C@@H](CCCNC(=N)N)NC(=O)[C@@H](NC(=O)C[C@H](O)CC(C)C)[C@@H](C)OC(=O)[C@H]([C@@H](C)O)NC1=O [Lysocin E, lysocin E] ({Hexanoyl(3R-OH,5-Me)}-T[dR]SG[dNMeF]L[dR]E[dQ][dW]IT; ester 1-C)
- Antimicrobial activity (MIC) (MRSA): 4 µg/mL
- MIC in 10% bovine serum (MRSA): 0.063 µg/mL (≈ 0.0389 µM)
- MIC of lysocin E, Serum 0% (A) [1]: 4 µg/mL
- MIC of lysocin E, Serum 10% (B) [1]: 0.13 µg/mL
- MIC of lysocin E, Serum 0% (A) [2]: 4 µg/mL
- MIC of lysocin E, Serum 10% (B) [2]: 0.13 µg/mL
- MIC of lysocin E, Serum 0% (A) [3]: 4 µg/mL
- MIC of lysocin E, Serum 10% (B) [3]: 0.13 µg/mL
- MIC of lysocin E, Serum 0% (A) [4]: 4 µg/mL
- MIC of lysocin E, Serum 10% (B) [4]: 0.13 µg/mL
- MIC of lysocin E, Serum 0% (A) [5]: 2 µg/mL
- MIC of lysocin E, Serum 10% (B) [5]: 0.25 µg/mL
- MIC of lysocin E, Serum 0% (A) (S. aureus Newman): 4 µg/mL
- MIC of lysocin E, Serum 10% (B) (S. aureus Newman): 0.13 µg/mL
- MIC of lysocin E, Serum 0% (A) [6]: 2 µg/mL
- MIC of lysocin E, Serum 10% (B) [6]: 7.8 ng/mL
- MIC of lysocin E, Serum 0% (A) [7]: 4 µg/mL
- MIC of lysocin E, Serum 10% (B) [7]: 0.13 µg/mL
- MIC of lysocin E, Serum 0% (A) (Bacillus cereus JCM20037): 2 µg/mL
- MIC of lysocin E, Serum 10% (B) (Bacillus cereus JCM20037): 0.50 µg/mL
- MIC of lysocin E, Serum 0% (A) (S. aureus (MRSA) MRSA4): 4 µg/mL
- MIC of lysocin E, Serum 10% (B) (S. aureus (MRSA) MRSA4): 0.25 µg/mL
- MIC of lysocin E, Serum 0% (A) [8]: 2 µg/mL
- MIC of lysocin E, Serum 10% (B) [8]: 0.13 µg/mL
- MIC of lysocin E, Serum 0% (A) [9]: 4 µg/mL
- MIC of lysocin E, Serum 10% (B) [9]: 0.13 µg/mL
- MIC of lysocin E, Serum 0% (A) [10]: 2 µg/mL
- MIC of lysocin E, Serum 10% (B) [10]: 0.063 µg/mL
- Kd (rhApoA-I ∆NM): 5.6 µM
- fraction unbound (in vitro): < 0.01

Reference: paper PMC8568920, “Serum apolipoprotein A-I potentiates the therapeutic efficacy of lysocin E against Staphylococcus aureus” (Nature Communications, 2021)
